Assay results as given in the supplement of paper PMC10307832.

Columns and labels:
Test in all cases: relative viability (nuclei count vs DMSO), 5 days (fraction); higher = more cells survive
Crenolanib + Trametinib = compound: CC1(COc2ccc3c(c2)ncn3-c2ccc3cccc(N4CCC(N)CC4)c3n2)COC1 [Crenolanib] + CC(=O)Nc1cccc(-n2c(=O)n(C3CC3)c(=O)c3c(Nc4ccc(I)cc4F)n(C)c(=O)c(C)c32)c1 [Trametinib] (partner 0.02 µM)
Method in brief: (§1)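 Cells from lung cancer lines were seeded into 1536-well plates and, one day later, dosed by pin tool. Treatments were either a single drug or a fixed dose of an anchor drug with five library-drug doses (not always all listed) in √10 steps. After 5 days, nuclei were stained in a one-step fixation (final 0.05% Triton X-100, 1% formaldehyde, 1 ug/ml Hoechst) and counted on 4× images, and relative viability is the treated-to-vehicle nuclei ratio, as the median of duplicate plates.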

Crenolanib + Palbociclib = compound: CC1(COc2ccc3c(c2)ncn3-c2ccc3cccc(N4CCC(N)CC4)c3n2)COC1 [Crenolanib] + CC(=O)c1c(C)c2cnc(Nc3ccc(N4CCNCC4)cn3)nc2n(C2CCCC2)c1=O [Palbociclib] (partner 0.5 µM)
Method in brief: as §1

Crenolanib + Linsitinib = compound: CC1(COc2ccc3c(c2)ncn3-c2ccc3cccc(N4CCC(N)CC4)c3n2)COC1 [Crenolanib] + C[C@]1(O)C[C@@H](c2nc(-c3ccc4ccc(-c5ccccc5)nc4c3)c3c(N)nccn32)C1 [Linsitinib] (partner 1 µM)
Method in brief: as §1

Crenolanib + Navitoclax = compound: CC1(COc2ccc3c(c2)ncn3-c2ccc3cccc(N4CCC(N)CC4)c3n2)COC1 [Crenolanib] + CC1(C)CCC(c2ccc(Cl)cc2)=C(CN2CCN(c3ccc(C(=O)NS(=O)(=O)c4ccc(N[C@H](CCN5CCOCC5)CSc5ccccc5)c(S(=O)(=O)C(F)(F)F)c4)cc3)CC2)C1 [Navitoclax] (partner 0.5 µM)
Method in brief: as §1

| Cell Line | relative viability (Crenolanib + Trametinib; first compound 0.01 µM) | relative viability (Crenolanib + Trametinib; first compound 0.03162 µM) | relative viability (Crenolanib + Trametinib; first compound 0.1 µM) | relative viability (Crenolanib + Trametinib; first compound 0.3162 µM) | relative viability (Crenolanib + Trametinib; first compound 1 µM) | relative viability (Crenolanib + Palbociclib; first compound 0.01 µM) | relative viability (Crenolanib + Palbociclib; first compound 0.03162 µM) | relative viability (Crenolanib + Palbociclib; first compound 0.1 µM) | relative viability (Crenolanib + Palbociclib; first compound 0.3162 µM) | relative viability (Crenolanib + Palbociclib; first compound 1 µM) | relative viability (Crenolanib + Linsitinib; first compound 0.01 µM) | relative viability (Crenolanib + Linsitinib; first compound 0.03162 µM) | relative viability (Crenolanib + Linsitinib; first compound 0.1 µM) | relative viability (Crenolanib + Linsitinib; first compound 0.3162 µM) | relative viability (Crenolanib + Linsitinib; first compound 1 µM) | relative viability (Crenolanib + Navitoclax; first compound 0.01 µM) | relative viability (Crenolanib + Navitoclax; first compound 0.03162 µM) | relative viability (Crenolanib + Navitoclax; first compound 0.1 µM) | relative viability (Crenolanib + Navitoclax; first compound 0.3162 µM) | relative viability (Crenolanib + Navitoclax; first compound 1 µM) |
| --- | --- | --- | --- | --- | --- | --- | --- | --- | --- | --- | --- | --- | --- | --- | --- | --- | --- | --- | --- | --- |
| LOU-NH91 | 0.826 | 0.793 | 0.774 | 0.879 | 0.788 | 0.524 | 0.481 | 0.518 | 0.539 | 0.548 | 1.02 | 0.908 | 0.822 | 0.887 | 0.936 | 0.853 | 0.702 | 0.645 | 0.641 | 0.737 |
| LU99A | 0.527 | 0.499 | 0.514 | 0.618 | 0.541 | 0.411 | 0.453 | 0.4 | 0.432 | 0.441 | 0.547 | 0.559 | 0.531 | 0.628 | 0.603 | 0.989 | 0.802 | 0.846 | 0.893 | 0.964 |
| LXF-289 | 0.665 | 0.638 | 0.689 | 0.7 | 0.718 | 0.628 | 0.595 | 0.62 | 0.648 | 0.618 | 0.974 | 1.02 | 0.955 | 1.02 | 0.972 | 0.92 | 0.977 | 0.873 | 1 | 0.929 |
| NCI-H23 | 0.441 | 0.412 | 0.425 | 0.387 | 0.408 | 0.588 | 0.516 | 0.454 | 0.539 | 0.449 | 0.563 | 0.671 | 0.548 | 0.759 | 0.648 | 0.805 | 0.992 | 0.899 | 1.03 | 0.822 |
| NCI-H322M | 0.515 | 0.516 | 0.488 | 0.525 | 0.609 | 0.497 | 0.483 | 0.482 | 0.479 | 0.496 | 0.944 | 0.923 | 0.884 | 0.935 | 0.975 | 1.12 | 1.14 | 1.19 | 1.28 | 1.38 |
| NCI-H441 | 0.537 | 0.479 | 0.425 | 0.485 | 0.408 | 0.261 | 0.236 | 0.217 | 0.262 | 0.242 | 0.555 | 0.508 | 0.46 | 0.484 | 0.509 | 0.487 | – | 0.815 | 0.639 | 0.683 |
| NCI-H460 | 0.13 | 0.169 | 0.151 | 0.17 | 0.133 | 0.165 | 0.163 | 0.0988 | 0.15 | 0.145 | 0.85 | 0.817 | 0.745 | 1.02 | 0.816 | 1.24 | 1.4 | 0.932 | 1.15 | 1.15 |
| NCI-H520 | 0.818 | 0.714 | 0.644 | 0.678 | 0.686 | 0.252 | 0.214 | 0.289 | 0.267 | 0.309 | 0.89 | 1.07 | 0.853 | 1.08 | 0.868 | 0.962 | 1.13 | 1.01 | 1.15 | 1.01 |
| NCI-H647 | 0.55 | 0.442 | 0.486 | 0.653 | 0.538 | 0.401 | 0.341 | 0.434 | 0.363 | 0.51 | 1.14 | 1.11 | 1.09 | 1.31 | 1.34 | 1.13 | 1.22 | 0.967 | 1.11 | 0.98 |
| NCI-H727 | 0.437 | 0.387 | 0.359 | 0.382 | 0.447 | 0.72 | 0.676 | 0.678 | 0.646 | 0.699 | 0.285 | 0.245 | 0.284 | 0.327 | 0.389 | 0.57 | 0.414 | 0.462 | 0.467 | 0.362 |
| NCI-H838 | 0.564 | 0.501 | 0.489 | 0.53 | 0.439 | 0.244 | 0.232 | 0.21 | 0.232 | 0.205 | 1.05 | 0.967 | 0.929 | 1.09 | 0.943 | 1.19 | 1.16 | 1.21 | 1.2 | 1.02 |
| NCI-H1355 | 0.488 | 0.381 | 0.405 | 0.547 | 0.37 | 0.405 | 0.457 | 0.4 | 0.472 | 0.351 | 0.857 | 0.848 | 0.773 | 0.947 | 0.809 | 1.08 | 0.897 | 0.999 | 1.22 | 0.825 |
| NCI-H1395 | 1.05 | 1.03 | 0.976 | 1 | 1.14 | 0.622 | 0.628 | 0.677 | 0.635 | 0.628 | 1.6 | 1.11 | 1 | 0.898 | 1.21 | 1.13 | 1.26 | 1.07 | 1.18 | 1.15 |
| NCI-H1437 | 0.677 | 0.572 | 0.487 | 0.521 | 0.602 | 0.33 | 0.322 | 0.301 | 0.293 | 0.332 | 1.05 | 1.03 | 0.958 | 1.12 | 1.02 | 1.1 | 1.11 | 1.15 | 1.18 | 1.11 |
| NCI-H1651 | 0.864 | 0.835 | 0.783 | 0.825 | 0.847 | 0.531 | 0.518 | 0.516 | 0.522 | 0.495 | 1.06 | 0.988 | 0.892 | 1.02 | 0.878 | 1.1 | 1.07 | 0.935 | 1.23 | 1.03 |
| NCI-H1666 | 0.887 | 0.824 | 0.857 | 0.985 | 0.83 | 0.657 | 0.678 | 0.594 | 0.63 | 0.694 | 0.871 | 0.909 | 0.765 | 0.881 | 0.839 | 1.07 | 0.998 | 0.872 | 1.19 | 0.971 |
